The text below walks through data of PubChem BioAssay (NCI).

Several values for one entry are separate records, joined by “and”; a condition that tells them apart may be missing. Identical values can stand only once.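 Compound exposure: 48 hours, 5 concentrations, 96-well plates. GI50 marks 50% less growth. TGI is the concentration that stops growth completely.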

Some test systems named below: DMS 273 small cell lung; RPMI-8226 leukemia; LXFL 529 NSCLC; SNB-75 CNS; M14 melanoma; EKVX NSCLC; HOP-92 NSCLC; DMS 114 small cell lung; SK-MEL-2 melanoma; OVCAR-5 ovarian; HS 578T breast.
What all share (test): growth of human tumour cells (NCI), 48 h

For `COC(=O)C1=C(C(=O)OC)C23C=CC=CC24C(C(=O)OC)=C(C(=O)OC)C4C1C3` (stereo not drawn), the TGI in the assay with DMS 273 small cell lung was more than 100 µM; with RPMI-8226 leukemia it was more than 100 µM; with LXFL 529 NSCLC, more than 100 µM; in the assay on SNB-75 CNS, 9.08 µM; in the assay on M14 melanoma, more than 100 µM; in the assay with EKVX NSCLC, more than 100 µM. Besides, the TGI with HOP-92 NSCLC, in the assay on DMS 114 small cell lung, with SK-MEL-2 melanoma and in the assay with OVCAR-5 ovarian was more than 100 µM in each case.
On to `CC1=C(C(=O)Nc2ccccc2C)C(c2ccc([N+](=O)[O-])cc2)C(C(=O)Nc2ccccc2C)=C(C)N1`, for which the TGI was more than 100 µM with DMS 273 small cell lung; more than 100 µM in the assay on RPMI-8226 leukemia; more than 100 µM in the assay with LXFL 529 NSCLC; 86.5 µM in the assay with SNB-75 CNS; more than 100 µM with M14 melanoma; more than 100 µM in the assay with EKVX NSCLC. Besides, the TGI in the assay with DMS 114 small cell lung, in the assay on SK-MEL-2 melanoma and in the assay with OVCAR-5 ovarian was more than 100 µM in each case.
As for `N/N=C1\c2ccccc2C2/C(=N\N)c3ccccc3C12` (stereo not drawn), the TGI with DMS 273 small cell lung, in the assay with RPMI-8226 leukemia, in the assay on LXFL 529 NSCLC, with SNB-75 CNS, with M14 melanoma and in the assay on EKVX NSCLC was more than 100 µM throughout. The TGI in the assay on HOP-92 NSCLC, in the assay on DMS 114 small cell lung, in the assay on SK-MEL-2 melanoma and in the assay with OVCAR-5 ovarian was more than 100 µM in each case.
Turning to `C=CCNC1=C(C(=O)OCC)C(=O)CO1`, the TGI in the assay on DMS 273 small cell lung, in the assay on RPMI-8226 leukemia, in the assay with LXFL 529 NSCLC, with SNB-75 CNS, in the assay on M14 melanoma and in the assay on EKVX NSCLC was more than 100 µM each time. Also, the TGI with HOP-92 NSCLC, in the assay with DMS 114 small cell lung, with SK-MEL-2 melanoma and in the assay with OVCAR-5 ovarian was more than 100 µM in each case.
On to `Cc1ccc(NC(=O)CC(=O)n2nc(-c3ccccc3)c(N=Nc3ccc(Cl)cc3)c2-c2ccccc2)cc1`, for which the TGI with DMS 273 small cell lung is more than 100 µM; in the assay with RPMI-8226 leukemia it was 47.8 µM; with LXFL 529 NSCLC it was more than 100 µM; with SNB-75 CNS, 70.9 µM; with M14 melanoma it was more than 100 µM; with EKVX NSCLC, more than 100 µM. The TGI in the assay on HOP-92 NSCLC is 89 µM; in the assay with DMS 114 small cell lung, more than 100 µM; with SK-MEL-2 melanoma it was more than 100 µM; in the assay with OVCAR-5 ovarian, more than 100 µM.
On to `CC(=O)OCC1OC(OC2CC3C(C)(C)C(OC(C)=O)CC[C@]3(C)C3CCC45CC4(CC[C@H]5C(C)CC(O)C4OC4(C)C)[C@]23C)C(O)C(O)C1O` (stereo partly drawn), for which the TGI with DMS 273 small cell lung is 5.76 µM and 4.37 µM; with RPMI-8226 leukemia, 5 µM; in the assay with LXFL 529 NSCLC, 10.6 µM and 15.2 µM; with SNB-75 CNS, 8.23 µM and 12.4 µM; in the assay with M14 melanoma, 6.75 µM and 6.61 µM; with EKVX NSCLC, > 60 µM and 11.7 µM. Also, the TGI was 6.33 µM in the assay with HOP-92 NSCLC; 5.46 µM and 4.32 µM in the assay with DMS 114 small cell lung; 6.17 µM and 14.6 µM in the assay on SK-MEL-2 melanoma; 2.52 µM and 4.46 µM in the assay with OVCAR-5 ovarian. Also, the GI50 in the assay on LXFL 529 NSCLC was 3.74 µM; with SNB-75 CNS, 3700 nM; in the assay with EKVX NSCLC, more than 60000 nM; in the assay with SK-MEL-2 melanoma, 4290 nM; with OVCAR-5 ovarian, 2020 nM.
Regarding `Cc1cc(O)c2c(c1)C(=O)c1cc(O)cc(O)c1C2=O`, the TGI in the assay with DMS 273 small cell lung was 62.2 µM; with RPMI-8226 leukemia it was 99.8 µM; in the assay with LXFL 529 NSCLC it was 85.3 µM; with SNB-75 CNS it was more than 81.6 µM; with M14 melanoma it was 60.9 µM; with HS 578T breast, 82.4 µM. The TGI in the assay on EKVX NSCLC is more than 100 µM; in the assay with HOP-92 NSCLC, 56.8 µM; in the assay on DMS 114 small cell lung, more than 100 µM; with SK-MEL-2 melanoma it was more than 74.3 µM; in the assay on OVCAR-5 ovarian, more than 100 µM. In addition, the GI50 was 26.2 µM in the assay on HS 578T breast and 24300 nM with EKVX NSCLC.
On to `CCCCCCCCCCCCCC/C(C(=O)OC)=C(/O)C(=O)OCC`, for which the TGI with DMS 273 small cell lung was more than 100 µM; in the assay with RPMI-8226 leukemia it was more than 100 µM; in the assay on LXFL 529 NSCLC, more than 100 µM; in the assay with SNB-75 CNS, more than 100 µM; with M14 melanoma, 37.4 µM; with EKVX NSCLC it was more than 100 µM. For the same compound, the TGI in the assay on HOP-92 NSCLC is 54.5 µM; in the assay with DMS 114 small cell lung, more than 100 µM; with SK-MEL-2 melanoma it was 32 µM; with OVCAR-5 ovarian, 70.1 µM.
`CO[C@H]1[C@H](O)[C@H](O[C@H]2CC[C@@]3(C)[C@H](CC[C@@H]4[C@@H]3CC[C@]3(C)[C@@H](C5=CC(=O)OC5)CC[C@]43O)C2)O[C@@H](C)[C@@H]1O`: the TGI is 0.00303 µM in the assay with DMS 273 small cell lung; 0.00542 µM with RPMI-8226 leukemia; 0.00658 µM and 0.0128 µM in the assay with LXFL 529 NSCLC; 0.0114 µM and 0.0737 µM in the assay on SNB-75 CNS; 0.00302 µM and 0.0169 µM in the assay with M14 melanoma; less than 0.0001 µM in the assay with HS 578T breast. Besides, the TGI in the assay with EKVX NSCLC is 0.00148 µM; in the assay with HOP-92 NSCLC it was 0.00571 µM and 0.0336 µM; in the assay on DMS 114 small cell lung it was 0.00335 µM; in the assay with SK-MEL-2 melanoma it was 0.00476 µM and < 0.0175 µM. Also, the GI50 in the assay on SNB-75 CNS is 2.33 nM.
Regarding `CCc1cccc(C(C)C)c1NC(=O)C(=O)C(C(=O)C(=O)OC)c1nc2ccccc2[nH]c1=O` (stereo not drawn), the TGI with DMS 273 small cell lung, with RPMI-8226 leukemia, in the assay with LXFL 529 NSCLC, with SNB-75 CNS, with M14 melanoma and in the assay with EKVX NSCLC was more than 100 µM each time. Besides, the TGI with HOP-92 NSCLC, with DMS 114 small cell lung, in the assay with SK-MEL-2 melanoma and in the assay with OVCAR-5 ovarian was more than 100 µM throughout.
Turning to `CCC(=O)OC1CCn2c1nc1c2C(=O)C(C)=C(N2CC2)C1=O` (stereo not drawn), the TGI with DMS 273 small cell lung was 0.121 µM; with LXFL 529 NSCLC, 0.35 µM; in the assay on SNB-75 CNS, 0.0957 µM and 0.0544 µM; in the assay with M14 melanoma, 0.0436 µM and 0.141 µM; with HS 578T breast it was 0.78 µM; with EKVX NSCLC, 1.04 µM and 0.504 µM. Further, the TGI with HOP-92 NSCLC was 7.99 µM and 6.33 µM; in the assay with DMS 114 small cell lung it was 0.522 µM; with SK-MEL-2 melanoma, 0.1 µM and 0.117 µM; in the assay with OVCAR-5 ovarian, 0.589 µM and 0.229 µM. For the same compound, the GI50 in the assay with SNB-75 CNS was 22.3 nM; in the assay on M14 melanoma it was 18.5 nM; in the assay with EKVX NSCLC it was 305 nM; in the assay on HOP-92 NSCLC it was 2610 nM; in the assay with SK-MEL-2 melanoma it was 38 nM; with OVCAR-5 ovarian it was 74.3 nM.
In the case of `O=C(CC/C(C/C(=N/O)c1ccc(F)cc1)=N/O)N(Cc1ccccc1)Cc1ccccc1`, the TGI with DMS 273 small cell lung, with RPMI-8226 leukemia, with LXFL 529 NSCLC, in the assay with SNB-75 CNS, with M14 melanoma and in the assay with EKVX NSCLC was more than 100 µM each time. Further, the TGI in the assay with HOP-92 NSCLC, in the assay on DMS 114 small cell lung, in the assay on SK-MEL-2 melanoma and in the assay on OVCAR-5 ovarian was more than 100 µM throughout.
Regarding `C=C(CN(CC(=C)C(=O)c1ccccc1)C(C)(C)C)C(=O)c1ccccc1`, the TGI in the assay on DMS 273 small cell lung came out at 32.4 µM; in the assay with RPMI-8226 leukemia it was 68.4 µM; with LXFL 529 NSCLC it was 10.1 µM; with SNB-75 CNS, 17.6 µM; with M14 melanoma, 23 µM; in the assay with EKVX NSCLC, 44.4 µM. The TGI in the assay with HOP-92 NSCLC is 15 µM; with DMS 114 small cell lung, 33.5 µM; with SK-MEL-2 melanoma it was 35.3 µM; in the assay with OVCAR-5 ovarian it was 34.3 µM.
Regarding `COC(=O)c1ccccc1NC(=O)C(=O)CC(=O)c1ccccc1NC1=CC(=O)C(=O)c2ccccc21`, the TGI with DMS 273 small cell lung came to 25.8 µM; with RPMI-8226 leukemia, 35.1 µM; with LXFL 529 NSCLC, 27.2 µM; in the assay on SNB-75 CNS it was 40.3 µM; in the assay with M14 melanoma it was 17.9 µM; with HS 578T breast, 37.2 µM. In addition, the TGI with EKVX NSCLC is more than 100 µM; with HOP-92 NSCLC, 32.5 µM; in the assay with DMS 114 small cell lung, 5.33 µM; in the assay with SK-MEL-2 melanoma, 30.5 µM; in the assay with OVCAR-5 ovarian, 57.7 µM.
Consider `CC[C@@]1(O)C(=O)OCc2c1cc1n(c2=O)Cc2cc3cc(OC)ccc3nc2-1`, for which the TGI in the assay on DMS 273 small cell lung is 1.58 µM; in the assay with RPMI-8226 leukemia, 8.46 µM and 1.23 µM; in the assay with LXFL 529 NSCLC, 2.51 µM; with SNB-75 CNS, 0.0491 µM; in the assay with EKVX NSCLC, more than 100 µM; in the assay with HOP-92 NSCLC, 0.084 µM and 0.41 µM. Moreover, the values for the TGI in the assay with DMS 114 small cell lung, in the assay with SK-MEL-2 melanoma and in the assay with OVCAR-5 ovarian were 1.02 µM, 0.529 µM and 0.562 µM, respectively. The GI50 in the assay with RPMI-8226 leukemia was 41.1 nM; in the assay on M14 melanoma, 127 nM; in the assay on EKVX NSCLC, 1100 nM; with HOP-92 NSCLC, 25.1 nM; in the assay on OVCAR-5 ovarian, 643 nM.
For `CCOP(=O)(CC(=O)C1=C(O)C(CCCNC(=O)OC(C)(C)C)N(Cc2ccc(OC)c(OC)c2)C1=O)OCC` (stereo not drawn), the TGI in the assay with DMS 273 small cell lung, in the assay with RPMI-8226 leukemia, in the assay with LXFL 529 NSCLC, in the assay on SNB-75 CNS, with M14 melanoma and in the assay with EKVX NSCLC was more than 100 µM each time. The TGI in the assay on DMS 114 small cell lung, with SK-MEL-2 melanoma and with OVCAR-5 ovarian was more than 100 µM each time.
